Structures are written as SMILES.

One data set has as its system normal human plasma. The data set can be described thus: APTT clotting assay, normal human plasma. The format is biochemical. Particulars: normal human plasma (text). The procedure: (§1) For the PT assay, thromboplastin-D was reconstituted according to the manufacturer’s directions and warmed to 37 °C. […] After incubation for 4 min at 37 °C, clotting was initiated by adding 100 μL of prewarmed 25 mM CaCl2 and the time to clotting was noted. […] To determine the in vitro effect on the APTT of deficient human plasmas, the APTT assay was repeated, using human plasmas deficient of factor VII (FVII), factor IX (FIX), FXI, or factor XII (FXII). […] The positive control used in APTT and PT assays was rivaroxaban, a clinically used FXa inhibitor. Under the conditions reported, rivaroxaban doubled the APTT and PT at concentrations of 0.123 ± 0.003 µM and 0.193 ± 0.043 µM, respectively.

Data set [1] relates to human plasma deficient of FXII. The data set can be described thus: APTT clotting assay, FXII-deficient plasma. The format is biochemical. The procedure: as §1
The next data set has as its target T1, human α-thrombin (Homo sapiens, UniProt P00734).
T1 construct: purchased Haematologic Technologies, Inc
The data set is described as follows: Thrombin chromogenic substrate hydrolysis assay. Type of data set: biochemical. The procedure: Direct inhibition of human FXa and α-thrombin of the common coagulation pathway and human plasmin of the fibrinolysis pathway were measured using the corresponding chromogenic substrate hydrolysis assays at 37 °C and pH 7.4, as reported earlier using the 96-microplate platform. […] After 10 min incubation, 5 µL Spectrozyme FXa (5 mM stock conc.) was rapidly added and the residual activity of FXa was measured from the initial rate of increase in absorbance at 405 nm. […] The concentration vs effect curve was constructed using logistic Equation (1) from which the potency (IC50) and efficacy (ΔY) of inhibition were also obtained.
For thrombin and plasmin, the assays were performed using substrates appropriate for each enzyme (Spectrozyme TH for thrombin and Spectrozyme PL for plasmin) under conditions closest to the physiological condition. The KM of the substrate for its enzyme was used to identify the concentration of the substrate to be used for inhibition studies. […] After 10 min incubation, 5 µL Spectrozyme TH (1.0 mM stock conc.) was rapidly added and the residual activity of thrombin was measured from the initial rate of increase in absorbance at 405 nm. […] After 10 min incubation, 5 µL Spectrozyme PL (1.0 mM stock conc.) was rapidly added and the residual activity of plasmin was measured from the initial rate of increase in absorbance at 405 nm. […]

For a further data set, the target named is T2, human FXIIIa (Homo sapiens, UniProt P00488).
T2 construct: followed by the addition of 2 μL human FXIIIa (0.3 μM); purchased Haematologic Technologies, Inc
T2 sequence (P00488 39-732 limits assumed): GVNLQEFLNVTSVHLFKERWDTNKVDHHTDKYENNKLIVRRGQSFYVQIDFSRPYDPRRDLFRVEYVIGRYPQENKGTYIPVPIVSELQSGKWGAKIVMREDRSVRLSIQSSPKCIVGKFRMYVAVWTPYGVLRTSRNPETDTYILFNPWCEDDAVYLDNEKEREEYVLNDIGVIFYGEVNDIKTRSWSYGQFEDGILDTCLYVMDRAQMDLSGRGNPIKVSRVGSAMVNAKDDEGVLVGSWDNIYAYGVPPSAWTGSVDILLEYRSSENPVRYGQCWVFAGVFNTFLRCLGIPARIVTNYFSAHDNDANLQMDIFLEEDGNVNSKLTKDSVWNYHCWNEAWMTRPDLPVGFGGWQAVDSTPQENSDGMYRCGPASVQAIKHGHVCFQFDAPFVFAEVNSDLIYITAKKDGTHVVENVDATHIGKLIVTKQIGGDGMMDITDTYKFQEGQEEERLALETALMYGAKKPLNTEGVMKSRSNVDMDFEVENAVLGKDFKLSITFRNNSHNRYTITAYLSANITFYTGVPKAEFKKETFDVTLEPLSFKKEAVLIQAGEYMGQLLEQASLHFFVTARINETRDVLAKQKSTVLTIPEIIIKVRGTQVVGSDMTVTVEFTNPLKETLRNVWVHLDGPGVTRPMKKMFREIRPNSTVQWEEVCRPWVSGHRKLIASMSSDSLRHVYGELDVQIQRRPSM
The data set is described as follows: FXIIIa fluorescence-based transglutamination assay. The format is biochemical. Conditions: pH 7.4, 37 °C. The procedure:
(§2) Direct inhibition of the human coagulation transglutaminase FXIIIa was also studied using a fluorescence-based transglutamination assay as reported in the literature.
The activity of FXIIIa was evaluated by the addition of 5 μL dansylcadaverine (2 mM) and measuring the initial rate of increase in fluorescence emission (λEx. = 360 nm and λEm. = 490 nm). In all assays, the dose dependence of the fractional residual enzyme activity, if any, was analyzed using Equation (1) above to obtain the apparent concentration of the test molecule required to reduce the enzyme activity to 50% of its initial value. All assays were performed three times.

In the next data set the target is T3, bovine trypsin (Bos taurus, UniProt P00760).
T3 construct: purchased Millipore-Sigma
The data set can be described thus: Trypsin chromogenic substrate hydrolysis assay. The format is biochemical. Conditions: pH 7.4. The procedure:
as §2
(§3) After 10 min incubation, 5 µL FXIa substrate (6.9 mM stock concentration) was rapidly added and the residual FXIa activity was measured from the initial rate of increase in absorbance at 405 nm. Assays were performed in similar fashion with trypsin and chymotrypsin. Stock concentrations used were 18.9 µg/mL (trypsin) and 22.7 mM (S-2222) for bovine trypsin assay (final volume was 200 µL) and 2 µg/mL (chymotrypsin) and 16.2 mM (N-Succinyl-Ala-Ala-Pro-Phe-p-nitroanilide) for bovine chymotrypsin assay (final volume was 200 µL). The buffer used for FXIa, trypsin, chymotrypsin assays was 50 mM Tris-HCl buffer, pH 7.4, containing 150 mM NaCl, 2.5 mM CaCl2, 0.1% PEG8000, and 0.02% Tween80. Neutrophil elastase inhibition assay was performed in a 96-well plate with a final volume of 100 µl with 0.125 M 4-(2-hydroxyethyl)-1-piperazineethanesulfonic acid (HEPES) buffer, pH 7.4 containing 0.125% Triton-X 100, as reported earlier. […] After incubation, 3 µL neutrophil elastase substrate (S-1384; 25 mM stock conc.) was rapidly added and the residual enzyme activity measured from the initial rate of increase in the absorbance at 405 nm.

The next data set has as its target T4, bovine chymotrypsin (Bos taurus, UniProt P00766).
T4 construct: purchased Millipore-Sigma
The data set is described as follows: Chymotrypsin chromogenic substrate hydrolysis assay. The format is biochemical. Conditions: pH 7.4. The procedure:
as §2, §3

The conditions of data set [2]: cited from earlier work.
The mark [3] stands for this setting: parenteral administration, patients.

T3 sequence (P00760 24-246): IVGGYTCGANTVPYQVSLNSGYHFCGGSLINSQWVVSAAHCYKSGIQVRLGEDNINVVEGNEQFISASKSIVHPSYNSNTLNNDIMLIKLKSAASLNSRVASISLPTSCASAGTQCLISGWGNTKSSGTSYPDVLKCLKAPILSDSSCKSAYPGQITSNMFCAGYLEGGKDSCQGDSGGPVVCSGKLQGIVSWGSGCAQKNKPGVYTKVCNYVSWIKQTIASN

For `N=C(N)c1ccc(OCCCCCOc2ccc(C(=N)N)cc2)cc1` [pentamidine isethionate, 4,4′-(pentane-1,5-diylbis(oxy))-dibenzimidamide], the results for the “concentration to double the APTT” value with normal human plasma and with normal human plasma (listed as pentamidine) were 27.88 ± 2.99 µM and “lower than 50 µM”, respectively. The “APTTEC2×, concentration to double clotting time” value in data set [1] was found to be 27.05 ± 6.05 µm. Besides, the IC50 against human α-thrombin (Thrombin, pH 7.4, 37 °C) is greater than 100 µM; on human FXIIIa, greater than 50 µM; against bovine trypsin it was 4.9 ± 0.8 µM; against bovine chymotrypsin it was greater than 1750 µM. Besides, at human α-thrombin (thrombin, at 100 µM (highest concentration tested)), the inhibition at 100 µM is less than 40%. For the same compound, the HS on bovine trypsin came out at 1.0 ± 0.2. Moreover, the “∆Y (efficacy)” value on bovine trypsin is recorded as 116.8 ± 7.4%. Also, in data set [2] (setting [3]), the “anemia, incidence” value was 1%. Further, the “leukopenia, incidence” value in data set [2] (setting [3]) is given as 10%. For the same compound, the “thrombocytopenia, incidence” value in data set [2] (setting [3]) is reported as 3%. The “blood clot formation, share of treated patients” value in data set [2] (treated patients) is given as “less than 1%”.

One may read the IC50 as the concentration at which inhibition is half-maximal. Read a high IC50 as weaker potency in that assay. Broadly, the inhibition is how much of the control response was suppressed. Read a high inhibition as a response far below the control.

These data come from paper PMC6600542 (Molecules, 2019).
